Measurements: ChEMBL document CHEMBL1201862, “PubChem BioAssay data set” (2004)
Calls of active or inactive are those of the source.

Tests used:
[1] = intracellular Trypanosoma cruzi inhibitors in host cells – cell-based, plate reader, cherry-pick samples, set 3, dose response (AID 651818); format: functional;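 further: compounds incubated with infected cells for about four days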
[2] = target: T1, Calpain-2 catalytic subunit (Sus scrofa, UniProt P43367); assay: pig calpain II inhibitor potency, dose response, biochemical, fluorogenic peptide substrate (AID 1420); format: functional
T1 sequence (P43367 whole entry): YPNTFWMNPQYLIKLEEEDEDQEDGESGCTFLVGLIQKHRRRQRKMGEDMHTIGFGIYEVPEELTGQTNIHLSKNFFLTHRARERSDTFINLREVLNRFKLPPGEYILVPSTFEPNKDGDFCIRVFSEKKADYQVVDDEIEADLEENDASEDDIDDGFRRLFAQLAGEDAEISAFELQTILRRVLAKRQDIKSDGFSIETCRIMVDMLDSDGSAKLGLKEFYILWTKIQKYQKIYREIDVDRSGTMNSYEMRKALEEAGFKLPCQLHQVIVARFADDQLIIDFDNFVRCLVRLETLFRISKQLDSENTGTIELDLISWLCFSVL

[3] = target: T2, Short transient receptor potential channel 4 (Mus musculus, UniProt Q9QUQ5); assay: mouse TRPC4 channel activators, dose response, cell-based, HEK293 TRPC4/mu-opioid, Fluo-4 calcium (AID 434937); format: functional
T2 sequence (Q9QUQ5 whole entry): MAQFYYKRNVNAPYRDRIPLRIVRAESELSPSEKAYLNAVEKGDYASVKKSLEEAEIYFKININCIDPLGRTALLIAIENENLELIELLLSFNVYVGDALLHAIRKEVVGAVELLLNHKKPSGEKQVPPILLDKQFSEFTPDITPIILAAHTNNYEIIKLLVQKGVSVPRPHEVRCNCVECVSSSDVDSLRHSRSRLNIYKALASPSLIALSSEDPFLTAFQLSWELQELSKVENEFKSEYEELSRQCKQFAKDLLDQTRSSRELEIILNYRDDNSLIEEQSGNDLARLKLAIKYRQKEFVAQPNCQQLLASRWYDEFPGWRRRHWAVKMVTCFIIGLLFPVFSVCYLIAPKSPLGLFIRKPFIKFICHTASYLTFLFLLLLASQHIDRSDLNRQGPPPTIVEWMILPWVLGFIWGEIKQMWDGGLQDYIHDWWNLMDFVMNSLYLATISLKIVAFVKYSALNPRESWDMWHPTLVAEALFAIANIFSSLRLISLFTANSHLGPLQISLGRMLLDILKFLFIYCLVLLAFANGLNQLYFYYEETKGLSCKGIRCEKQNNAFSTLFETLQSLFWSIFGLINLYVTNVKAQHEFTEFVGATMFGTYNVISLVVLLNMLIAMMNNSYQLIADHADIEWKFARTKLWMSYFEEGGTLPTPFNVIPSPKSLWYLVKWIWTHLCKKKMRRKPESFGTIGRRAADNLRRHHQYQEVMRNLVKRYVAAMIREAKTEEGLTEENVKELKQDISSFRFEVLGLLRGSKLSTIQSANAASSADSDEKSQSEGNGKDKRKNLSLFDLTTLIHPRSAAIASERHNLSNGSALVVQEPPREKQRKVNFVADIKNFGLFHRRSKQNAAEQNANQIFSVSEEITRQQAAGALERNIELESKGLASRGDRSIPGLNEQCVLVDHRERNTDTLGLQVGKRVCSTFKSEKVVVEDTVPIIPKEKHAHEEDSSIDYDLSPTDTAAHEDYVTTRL

Genome polyprotein = Genome polyprotein (dengue virus type 2, UniProt P29990); assay: Dengue-2 NS5 methyltransferase inhibitors, primary screen, biochemical, confirmation dose response (AID 588689); format: functional
[4] = target: Luciferin 4-monooxygenase (Photinus pyralis, UniProt P08659); assay: firefly luciferase enzyme inhibitors, dose response, biochemical, luminescence (AID 1891)
[5] = Luminescence Cell-Based Dose Confirmation HTS to Identify Inhibitors of Platelet Dense Granule Release. [Related pubchem assays: 1663 (Primary HTS), 1678 (Summary of Project)]; format: functional
[6] = Luminescence Cell-Based Dose Retest to Confirm Inhibitors of Cancer Stem Cells. [Related pubchem assays (depositor defined):AID2717, AID2721]; format: functional; settings: Homo sapiens
[7] = target: T3, RNA-binding protein pos-1 (Caenorhabditis elegans, UniProt G5EF15); assay: inhibitors of POS-1/mex-3 RNA binding, dose response, biochemical, fluorescence polarization (AID 1964);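 further: purified POS-1 fused to maltose binding protein made in E. coli; potency of compounds blocking POS-1 binding to fluorescent RNA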
T3 sequence (G5EF15 whole entry): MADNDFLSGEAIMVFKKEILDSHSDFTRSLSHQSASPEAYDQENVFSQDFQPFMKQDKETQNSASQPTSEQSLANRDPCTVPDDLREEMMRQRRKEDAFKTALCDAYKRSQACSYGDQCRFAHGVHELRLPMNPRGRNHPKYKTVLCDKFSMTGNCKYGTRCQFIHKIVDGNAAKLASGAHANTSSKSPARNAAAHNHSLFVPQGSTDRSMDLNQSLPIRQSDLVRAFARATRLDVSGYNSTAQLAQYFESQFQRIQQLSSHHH

[8] = target: T4, Zinc finger protein mex-5 (Caenorhabditis elegans, UniProt Q9XUB2); assay: MEX-5/TCR-2 RNA interaction inhibitors, dose response, biochemical, C. elegans, fluorescence polarization (AID 1960)
T4 sequence (Q9XUB2 whole entry): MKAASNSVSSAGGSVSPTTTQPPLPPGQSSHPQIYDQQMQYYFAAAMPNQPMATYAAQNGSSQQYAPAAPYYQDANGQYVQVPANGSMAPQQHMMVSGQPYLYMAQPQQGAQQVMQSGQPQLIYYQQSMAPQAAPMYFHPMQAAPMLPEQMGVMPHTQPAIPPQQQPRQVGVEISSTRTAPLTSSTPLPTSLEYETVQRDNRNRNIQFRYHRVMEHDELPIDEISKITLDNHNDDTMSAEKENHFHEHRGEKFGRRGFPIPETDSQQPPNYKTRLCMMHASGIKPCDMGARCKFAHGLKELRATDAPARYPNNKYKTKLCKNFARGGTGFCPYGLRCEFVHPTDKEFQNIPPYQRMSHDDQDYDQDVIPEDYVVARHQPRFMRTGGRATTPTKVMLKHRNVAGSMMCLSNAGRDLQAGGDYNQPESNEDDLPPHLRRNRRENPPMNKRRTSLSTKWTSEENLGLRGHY

Aminopeptidase N = target: T5, Aminopeptidase N (Plasmodium falciparum FcB1/Columbia, UniProt O96935); assay: P. falciparum M1AAP inhibitors, biochemical, fluorogenic H-Leu-NHMec substrate, 1536-well (AID 1445); design: species or system Plasmodium falciparum 3D7, 3D7
T5 sequence (O96935 whole entry): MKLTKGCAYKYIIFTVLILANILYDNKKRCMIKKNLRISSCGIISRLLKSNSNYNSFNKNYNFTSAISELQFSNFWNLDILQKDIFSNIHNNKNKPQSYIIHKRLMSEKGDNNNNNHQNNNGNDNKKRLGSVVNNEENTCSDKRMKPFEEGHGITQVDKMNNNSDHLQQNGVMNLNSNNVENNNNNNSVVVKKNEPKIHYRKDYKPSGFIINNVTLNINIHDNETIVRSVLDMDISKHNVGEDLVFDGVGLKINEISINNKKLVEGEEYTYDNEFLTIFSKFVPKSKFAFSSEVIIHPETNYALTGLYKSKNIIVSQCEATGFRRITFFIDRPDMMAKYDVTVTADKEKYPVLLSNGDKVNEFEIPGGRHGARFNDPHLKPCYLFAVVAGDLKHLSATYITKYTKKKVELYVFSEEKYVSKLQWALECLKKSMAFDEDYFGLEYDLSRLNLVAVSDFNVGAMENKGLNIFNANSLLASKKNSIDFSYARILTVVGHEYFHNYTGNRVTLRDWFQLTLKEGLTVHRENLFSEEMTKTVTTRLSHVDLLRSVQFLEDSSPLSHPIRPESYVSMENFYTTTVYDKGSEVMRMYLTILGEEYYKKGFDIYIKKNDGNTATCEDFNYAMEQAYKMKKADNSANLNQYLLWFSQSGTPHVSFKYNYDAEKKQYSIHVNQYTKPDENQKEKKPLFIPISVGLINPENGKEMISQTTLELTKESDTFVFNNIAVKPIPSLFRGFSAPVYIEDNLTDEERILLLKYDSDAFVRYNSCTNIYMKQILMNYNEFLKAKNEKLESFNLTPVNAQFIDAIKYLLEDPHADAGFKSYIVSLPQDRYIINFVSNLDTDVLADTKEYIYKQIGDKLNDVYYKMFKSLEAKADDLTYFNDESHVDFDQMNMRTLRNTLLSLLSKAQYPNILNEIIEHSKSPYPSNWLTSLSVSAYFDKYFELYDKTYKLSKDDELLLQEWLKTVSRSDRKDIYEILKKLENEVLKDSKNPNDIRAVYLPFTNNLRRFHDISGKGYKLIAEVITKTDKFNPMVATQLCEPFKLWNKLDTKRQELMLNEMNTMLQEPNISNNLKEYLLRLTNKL

[9] = inhibitors of intracellular T. cruzi replication, confirmation, NIH3T3 host cells, beta-gal luminescence (AID 2044); format: functional, cell-based;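 further: intracellular parasites grown in NIH/3T3 mouse fibroblasts as host cells; luminescent beta-galactosidase reporter signal from transgenic T. cruzi replicating inside host cells; inhibitors lower the luminescence signal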
[10] = cytotoxicity toward NIH3T3 fibroblasts, dose response, counter-screen, cell-based, ATP luminescence, mouse fibroblasts (AID 2010); format: functional;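 further: cells exposed to compound for about 90 hours before reading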
Fatty acid synthase [11] = target: T6, Fatty acid synthase (Homo sapiens, UniProt P49327); assay: FAS thioesterase domain inhibitors, dose response, biochemical, endpoint fluorescence intensity, uHTS hits (AID 624327); format: functional;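 further: fluorescence from hydrolysis of an O-methyl fluorescein acyl ester substrate by the enzyme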
Fatty acid synthase [12] = target: T6, Fatty acid synthase; assay: FAS thioesterase domain inhibitors, dose response, biochemical, kinetic fluorescence intensity (AID 624326); format: functional;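 further: rate of fluorescence rise from hydrolysis of a fluorogenic O-methyl fluorescein ester substrate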
[13] = inhibitors of HIV Env-driven cell fusion, dose response, cherry-pick (AID 652057); format: functional, cell-based
[14] = off-target signal loss in HeLa-CEM21 co-culture – HeLa F-luc CTL cells, cherry-picked, counter-screen for HIV-1 Env fusion inhibitor project, dose response (AID 652040); format: functional, cell-based;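 further: potency for signal decrease marking cytotoxic or nonspecific inhibition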
[15] = inhibitors of clade B AD8 Env fusion, dose response, cell-based, cherry-pick (AID 652062); format: functional;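 further: luciferase signal from cell-cell fusion driven by HIV-1 clade B AD8 Env; potency is for inhibitors of fusion seen as a drop in luminescence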

Genome polyprotein, sequence (P29990 2492-3391 limits assumed): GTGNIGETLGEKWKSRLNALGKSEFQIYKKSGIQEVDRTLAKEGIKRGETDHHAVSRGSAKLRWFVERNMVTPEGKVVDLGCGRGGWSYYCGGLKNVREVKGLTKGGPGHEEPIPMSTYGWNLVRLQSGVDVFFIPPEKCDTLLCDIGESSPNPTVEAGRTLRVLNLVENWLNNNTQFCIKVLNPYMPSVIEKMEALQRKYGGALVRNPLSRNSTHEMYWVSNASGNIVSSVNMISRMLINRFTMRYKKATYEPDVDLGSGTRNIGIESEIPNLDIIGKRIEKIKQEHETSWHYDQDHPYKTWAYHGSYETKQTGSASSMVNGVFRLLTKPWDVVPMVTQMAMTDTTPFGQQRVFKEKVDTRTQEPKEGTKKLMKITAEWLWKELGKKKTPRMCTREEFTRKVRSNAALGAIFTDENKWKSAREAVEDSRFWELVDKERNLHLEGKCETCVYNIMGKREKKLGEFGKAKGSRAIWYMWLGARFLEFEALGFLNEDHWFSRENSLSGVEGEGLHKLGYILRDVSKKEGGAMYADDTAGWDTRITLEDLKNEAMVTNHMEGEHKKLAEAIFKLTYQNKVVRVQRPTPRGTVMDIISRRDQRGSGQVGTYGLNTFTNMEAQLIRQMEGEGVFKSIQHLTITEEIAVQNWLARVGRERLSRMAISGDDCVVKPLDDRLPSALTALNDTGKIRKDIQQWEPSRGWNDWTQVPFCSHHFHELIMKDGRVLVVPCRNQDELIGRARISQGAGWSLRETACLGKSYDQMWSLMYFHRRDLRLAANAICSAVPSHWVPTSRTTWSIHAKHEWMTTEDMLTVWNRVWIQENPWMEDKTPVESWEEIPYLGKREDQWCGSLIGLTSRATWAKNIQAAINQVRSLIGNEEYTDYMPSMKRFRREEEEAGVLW
T6 sequence (P49327 whole entry, the tested form may be a part): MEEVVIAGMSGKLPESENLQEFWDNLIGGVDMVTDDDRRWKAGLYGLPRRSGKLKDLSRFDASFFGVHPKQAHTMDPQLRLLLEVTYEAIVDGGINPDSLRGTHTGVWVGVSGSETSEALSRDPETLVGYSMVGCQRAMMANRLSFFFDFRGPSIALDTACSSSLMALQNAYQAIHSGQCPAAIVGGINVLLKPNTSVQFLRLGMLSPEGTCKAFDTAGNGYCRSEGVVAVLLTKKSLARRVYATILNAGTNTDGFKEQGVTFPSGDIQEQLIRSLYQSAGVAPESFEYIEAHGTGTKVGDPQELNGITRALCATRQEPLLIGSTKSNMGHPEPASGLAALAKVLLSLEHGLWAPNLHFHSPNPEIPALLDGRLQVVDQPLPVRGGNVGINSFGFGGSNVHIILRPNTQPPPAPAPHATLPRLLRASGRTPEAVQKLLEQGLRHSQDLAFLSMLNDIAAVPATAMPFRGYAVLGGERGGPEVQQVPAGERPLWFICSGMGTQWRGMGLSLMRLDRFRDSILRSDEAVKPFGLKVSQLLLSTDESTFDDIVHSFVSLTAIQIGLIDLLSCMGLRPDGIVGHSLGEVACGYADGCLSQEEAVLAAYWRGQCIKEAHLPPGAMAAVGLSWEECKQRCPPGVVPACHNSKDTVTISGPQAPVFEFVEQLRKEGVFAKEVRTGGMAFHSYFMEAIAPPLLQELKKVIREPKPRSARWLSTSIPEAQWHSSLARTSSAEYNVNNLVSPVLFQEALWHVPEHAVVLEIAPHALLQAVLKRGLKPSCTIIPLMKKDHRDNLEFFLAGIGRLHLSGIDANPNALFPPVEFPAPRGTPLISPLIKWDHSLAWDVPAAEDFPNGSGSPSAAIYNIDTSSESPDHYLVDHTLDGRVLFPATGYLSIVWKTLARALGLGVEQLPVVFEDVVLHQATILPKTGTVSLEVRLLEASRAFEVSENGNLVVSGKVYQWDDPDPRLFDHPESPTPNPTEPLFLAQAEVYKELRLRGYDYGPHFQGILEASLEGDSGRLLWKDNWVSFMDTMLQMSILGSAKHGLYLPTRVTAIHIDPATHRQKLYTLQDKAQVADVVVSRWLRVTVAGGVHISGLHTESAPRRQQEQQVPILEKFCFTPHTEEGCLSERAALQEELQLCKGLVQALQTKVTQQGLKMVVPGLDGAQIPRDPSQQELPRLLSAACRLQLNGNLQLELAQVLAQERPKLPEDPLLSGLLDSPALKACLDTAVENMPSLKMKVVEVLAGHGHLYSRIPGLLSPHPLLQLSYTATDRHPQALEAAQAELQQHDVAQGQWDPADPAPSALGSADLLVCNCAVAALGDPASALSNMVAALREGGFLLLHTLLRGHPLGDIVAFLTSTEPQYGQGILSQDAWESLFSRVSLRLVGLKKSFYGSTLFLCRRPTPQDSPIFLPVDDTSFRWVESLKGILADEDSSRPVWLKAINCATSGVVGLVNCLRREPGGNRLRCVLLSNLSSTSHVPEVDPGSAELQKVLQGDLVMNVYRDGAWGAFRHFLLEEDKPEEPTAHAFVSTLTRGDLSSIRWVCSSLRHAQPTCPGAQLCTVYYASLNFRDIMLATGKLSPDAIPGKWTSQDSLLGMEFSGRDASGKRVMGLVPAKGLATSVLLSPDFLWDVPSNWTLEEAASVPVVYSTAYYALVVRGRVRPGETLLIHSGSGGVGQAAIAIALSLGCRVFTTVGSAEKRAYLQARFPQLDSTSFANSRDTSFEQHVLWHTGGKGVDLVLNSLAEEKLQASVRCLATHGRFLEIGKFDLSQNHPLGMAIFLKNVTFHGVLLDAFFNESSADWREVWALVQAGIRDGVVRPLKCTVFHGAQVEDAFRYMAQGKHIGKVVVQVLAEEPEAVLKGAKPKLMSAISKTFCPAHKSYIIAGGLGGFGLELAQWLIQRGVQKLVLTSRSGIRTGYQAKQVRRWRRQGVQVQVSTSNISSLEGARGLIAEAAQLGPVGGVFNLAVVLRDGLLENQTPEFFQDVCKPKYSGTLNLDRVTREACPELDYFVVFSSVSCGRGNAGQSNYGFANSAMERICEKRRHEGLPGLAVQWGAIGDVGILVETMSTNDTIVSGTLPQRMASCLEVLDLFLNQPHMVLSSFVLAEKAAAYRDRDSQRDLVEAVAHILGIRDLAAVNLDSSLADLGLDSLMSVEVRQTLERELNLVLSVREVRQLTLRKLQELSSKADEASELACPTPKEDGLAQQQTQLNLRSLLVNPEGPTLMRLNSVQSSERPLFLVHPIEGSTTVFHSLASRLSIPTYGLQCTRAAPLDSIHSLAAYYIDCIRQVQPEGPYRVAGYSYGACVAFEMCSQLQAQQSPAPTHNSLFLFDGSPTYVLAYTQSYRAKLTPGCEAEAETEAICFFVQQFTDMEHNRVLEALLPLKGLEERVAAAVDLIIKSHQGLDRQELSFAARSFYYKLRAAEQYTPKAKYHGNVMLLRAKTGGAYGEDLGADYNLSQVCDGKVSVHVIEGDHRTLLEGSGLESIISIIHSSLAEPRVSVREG
Luciferin 4-monooxygenase, sequence (P08659 whole entry): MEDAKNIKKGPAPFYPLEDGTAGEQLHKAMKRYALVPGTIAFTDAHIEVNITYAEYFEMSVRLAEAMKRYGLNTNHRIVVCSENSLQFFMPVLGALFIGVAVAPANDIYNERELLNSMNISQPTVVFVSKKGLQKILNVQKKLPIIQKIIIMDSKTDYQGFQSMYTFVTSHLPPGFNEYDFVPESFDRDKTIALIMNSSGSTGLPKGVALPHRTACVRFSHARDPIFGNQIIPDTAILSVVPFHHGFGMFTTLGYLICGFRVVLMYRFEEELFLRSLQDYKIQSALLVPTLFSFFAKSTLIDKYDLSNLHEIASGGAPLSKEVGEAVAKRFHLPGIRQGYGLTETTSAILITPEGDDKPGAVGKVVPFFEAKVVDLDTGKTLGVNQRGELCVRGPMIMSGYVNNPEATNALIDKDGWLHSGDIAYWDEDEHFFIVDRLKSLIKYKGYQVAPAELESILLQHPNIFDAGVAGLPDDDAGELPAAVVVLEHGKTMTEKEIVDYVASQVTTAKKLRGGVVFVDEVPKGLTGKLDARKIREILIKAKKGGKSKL

C[C@H](CO)N1C[C@H](C)[C@H](CN(C)S(=O)(=O)c2ccccc2)Oc2ccc(NC(=O)Nc3ccc(C(F)(F)F)cc3)cc2C1=O
AC50 [1]: 1.62 µM (active)

Cn1c(NCc2ccco2)nc2c1c(=O)n(Cc1ccc(Cl)c(Cl)c1)c(=O)n2C
IC50 [2]: 4.09 µM (not active)

COc1ccc(C(CNC(=O)CN2C(=O)NC3(CCCC3)C2=O)N(C)C)cc1 (stereo not given)
EC50 [3]: 3.76 µM (active)

Cc1ccc(S(=O)(=O)Oc2ccccc2C=C2C(=O)NC(=O)NC2=O)cc1
IC50 (Genome polyprotein): 36.8 µM (active)

O=C(NCCc1ccccn1)C(F)(F)C(F)(F)C(F)(F)C(F)(F)C(F)(F)C(F)F
EC50 [4]: > 112 µM (not active) | EC50 [5]: > 112 µM (not active) | EC50 [3]: 4.73 µM (active)

Oc1ccc(C[C@@H]2CN=C(S)N2CCCCC2CCCCC2)cc1
IC50 [2]: 12.2 µM (not active) | AC50 [6]: 5.41 µM (active)

Cc1cc(/C=C2\C(=O)NC(=O)N(c3ccccc3)C2=O)c(C)n1-c1ccc(C(=O)O)c(Cl)c1
EC50 [7]: > 300 µM (not active) | EC50 [8]: > 300 µM (not active) | IC50 (Genome polyprotein): 63.7 µM (active)

COc1ccc(C(=O)N2c3cc4c(cc3C(C)=CC2(C)C)OCO4)cc1
IC50 [2]: 6.36 µM (not active)

COc1ccc(C(=O)Nc2cc(C)ccc2NC(=O)COc2ccccc2)cc1
IC50 [2]: 1.51 µM (not active)

CCOc1cc(/C=N/NC2=NC(=O)C(CC(=O)O)S2)ccc1OS(=O)(=O)c1ccc(C)cc1 (stereo not given)
IC50 (Aminopeptidase N): 47.8 µM (active)

C[C@H]1CN([C@@H](C)CO)C(=O)Cc2cc(NC(=O)c3ccncc3)ccc2O[C@H]1CN(C)Cc1ccc(-c2ccccc2)cc1
AC50 [1]: 1.63 µM (active)

CS(=O)(=O)N1CCc2cc(-c3csc(NC(=O)Cc4cccs4)n3)ccc21
EC50 [9]: 0.586 µM (active) | EC50 [10]: > 60 µM (not active) | IC50 (Fatty acid synthase [11]): 6.53 µM (active) | IC50 (Fatty acid synthase [12]): 9.27 µM (active) | AC50 [13]: 27.1 µM (active) | AC50 [14]: 27.1 µM (active) | AC50 [15]: 9.65 µM (active)

COc1ccc(C(CNC(=O)c2cccc(Br)c2)N2CCCC2)cc1 (stereo not given)
EC50 [3]: 1.68 µM (active)

CCOC(=O)NN1C(=O)c2ccccc2NC12CCCC2
IC50 (Aminopeptidase N): 32.6 µM (active)

CCN1CCN(c2ccc(S(=O)(=O)N3CCOCC3)cc2NC(=O)C(C)Oc2cccc(Cl)c2)CC1 (stereo not given)
EC50 [3]: 5.96 µM (active)

COc1cc(OC)c(NS(=O)(=O)c2ccc(Cl)c(C(=O)OC(C)C(=O)N3CCCC3)c2)cc1Cl (stereo not given)
IC50 (Aminopeptidase N): 38.6 µM (active)

O=C(O)CN1C(=O)/C(=C\c2ccccc2OCc2ccccc2)SC1=S
IC50 (Genome polyprotein): 35.8 µM (active)

CCCOc1ccc(C(F)(F)F)cc1NC(=O)CCc1c(C)noc1C
AC50 [13]: 11.6 µM (active) | AC50 [14]: 24.2 µM (active) | AC50 [15]: 51.4 µM (active)

COc1ccc(C2=Nn3c(nnc3-c3ccco3)SC2)cc1
IC50 [2]: 9.61 µM (not active)

O=C1c2ccccc2C(=O)N1CCCCCc1nc(-c2ccccc2)no1
IC50 [2]: 3.34 µM (not active)

O=C1c2ccc(Br)cc2C(=O)N1c1ccc(Cc2ccncc2)cc1
IC50 [2]: 4.86 µM (not active)

Cc1ccc(/C=N\NC(=O)C2COc3cc4ccccc4cc3O2)o1 (stereo not given)
EC50 [3]: 1.88 µM (active)

O=C(c1ccccc1F)N1CCN(Cc2cccc(Cl)c2)CC1
AC50 [14]: > 70 µM (inactive) | AC50 [15]: 3.83 µM (active)

O=C(NC1CCCCC1)NC1CCN(C(=S)NCc2ccco2)CC1
IC50 (Aminopeptidase N): 66.3 µM (active)

CCOC(=O)C(=CN=C(N)Nc1nc2ccccc2o1)C(=O)OCC
IC50 (Aminopeptidase N): 79.2 µM (active)

Cc1c(O)ccc(C(=O)CN2C(=O)c3ccccc3C2=O)c1O
IC50 [2]: 7.96 µM (not active)
